Results reported in PMC11369174, “Proteome-scale characterisation of motif-based interactome rewiring by disease mutations” (Molecular Systems Biology, 2024).
Where a SMILES comes first, the peptide text is derived from it. The star is where a group is joined. FITC = O=C1OC2(c3ccc(O)cc3Oc3cc(O)ccc32)c2ccc(NC(=S)*)cc21

Experiments:
Settings in all cases: domain titrated to 10 nM FITC-peptide, 50 mM sodium phosphate pH 7.4, 0.05% Tween, quadratic fit, technical triplets, read-out: KD [µM] + SE
[1] = target: KPNA4 ARM minor (Homo sapiens, UniProt O00629); assay: FP saturation binding, KPNA4 ARM (minor)
KPNA4 ARM minor, sequence (O00629 68-487): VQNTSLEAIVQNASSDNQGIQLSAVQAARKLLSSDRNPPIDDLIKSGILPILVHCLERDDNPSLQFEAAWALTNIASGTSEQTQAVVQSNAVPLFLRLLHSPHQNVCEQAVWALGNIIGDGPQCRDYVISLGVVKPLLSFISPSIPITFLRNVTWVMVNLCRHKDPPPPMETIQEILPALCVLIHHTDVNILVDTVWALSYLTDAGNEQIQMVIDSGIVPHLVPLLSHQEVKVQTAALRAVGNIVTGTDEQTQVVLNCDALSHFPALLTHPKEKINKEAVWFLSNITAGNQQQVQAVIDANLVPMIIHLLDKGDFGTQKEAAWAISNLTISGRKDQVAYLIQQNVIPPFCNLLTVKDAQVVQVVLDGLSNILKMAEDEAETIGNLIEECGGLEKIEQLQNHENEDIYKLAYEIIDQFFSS

[2] = target: KPNA7 ARM (minor) (Homo sapiens, UniProt A9QM74); assay: FP saturation binding, KPNA7 ARM (minor)
KPNA7 ARM (minor), sequence (A9QM74 58-488 limits assumed): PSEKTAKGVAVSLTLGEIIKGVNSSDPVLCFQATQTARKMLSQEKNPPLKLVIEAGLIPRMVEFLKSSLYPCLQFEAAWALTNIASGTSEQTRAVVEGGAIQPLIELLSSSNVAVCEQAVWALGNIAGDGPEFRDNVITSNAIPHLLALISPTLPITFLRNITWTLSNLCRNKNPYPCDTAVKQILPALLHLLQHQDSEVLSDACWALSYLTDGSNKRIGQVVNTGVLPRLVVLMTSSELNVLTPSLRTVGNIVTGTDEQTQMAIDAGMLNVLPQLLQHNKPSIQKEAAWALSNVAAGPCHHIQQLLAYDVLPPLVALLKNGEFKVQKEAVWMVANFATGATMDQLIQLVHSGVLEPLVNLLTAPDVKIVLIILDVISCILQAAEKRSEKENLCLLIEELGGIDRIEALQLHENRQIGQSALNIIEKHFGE

[3] = target: T1, Clathrin NTD (Homo sapiens, UniProt Q00610); assay: FP saturation binding, Clathrin NTD
T1 sequence (Q00610 1-364): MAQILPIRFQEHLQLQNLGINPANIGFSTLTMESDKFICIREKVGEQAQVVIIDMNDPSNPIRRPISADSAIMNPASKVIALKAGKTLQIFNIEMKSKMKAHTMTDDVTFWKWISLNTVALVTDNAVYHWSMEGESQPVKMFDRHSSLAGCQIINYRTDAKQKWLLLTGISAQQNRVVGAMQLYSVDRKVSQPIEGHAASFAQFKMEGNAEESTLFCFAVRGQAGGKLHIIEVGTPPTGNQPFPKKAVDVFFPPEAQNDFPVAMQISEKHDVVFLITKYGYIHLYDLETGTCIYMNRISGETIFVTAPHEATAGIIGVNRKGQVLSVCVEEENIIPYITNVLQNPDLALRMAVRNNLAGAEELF
Experimental: In order to calculate the FP signal in millipolarisation (mP), the FITC-labelled peptides were excited at 485 nm and the emitted light was measured at 535 nm in two different angles. For saturation experiments, a dilution series of the respective protein domains was generated (25 µL) and 10 nM fluorescein isothiocyanate (FITC)-labelled peptide (diluted in 50 mM sodium phosphate buffer pH 7.4, 0.05% Tween) were added in an end volume of 50 µL. A control experiment titrating GST was performed for the binding of the NEDD4 WW2 domain, since the GST-tagged construct was used for affinity measurements. For fitting the data, the buffer-corrected reduced values were plotted in GraphPad PRISM against the respective protein concentration and the KD-values were obtained by fitting against the quadratic equation (Gianni et al, [2005]).

Structure (SMILES)	Kd [1] [µM]	Kd [2] [µM]	Kd [3] [µM]
CC[C@H](C)[C@H](NC(=O)[C@H](C)NC(=O)[C@H](CCCNC(=N)N)NC(=O)CNC(=O)[C@@H](NC(=O)[C@H](CCCNC(=N)N)NC(=O)CNC(=O)[C@H](CCC(=O)O)NC(=O)[C@H](CCSC)NC(=O)[C@H](CCSC)NC(=O)[C@H](CC(=O)O)NC(=O)[C@H](Cc1ccc(O)cc1)NC(=O)[C@@H](NC(=O)[C@H](CCCNC(=N)N)NC(=O)[C@H](CCCCN)NC(=O)[C@@H]1CCCN1C(=S)Nc1ccc2c(c1)C(=O)OC21c2ccc(O)cc2Oc2cc(O)ccc21)[C@@H](C)O)C(C)C)C(N)=O [FITC-NCOR2] ({FITC}-PKRTYDMMEGRVGRAI-NH2)	0.03 ± 0.002	57 ± 9	–
CC[C@H](C)[C@H](NC(=O)[C@H](CC(C)C)NC(=O)[C@H](CC(=O)O)NC(=O)[C@@H](NC(=O)[C@H](CO)NC(=S)Nc1ccc2c(c1)C(=O)OC21c2ccc(O)cc2Oc2cc(O)ccc21)C(C)C)C(=O)N[C@H](C(=O)N[C@@H](Cc1ccccc1)C(=O)N[C@@H](CC(=O)O)C(=O)N[C@@H](CO)C(=O)N[C@H](C(N)=O)C(C)C)[C@@H](C)O [FITC-NSP3] ({FITC}-SVDLITFDSV-NH2)	–	–	21 ± 3
